# Data from ChEMBL document CHEMBL4028869, “Synthesis and Bioevaluation of Macrocycle-Polyamine Conjugates as Cell Migration Inhibitors” (J Med Chem, 2017).
# pIC50: −log10 of the molar value.
# Tests used:
# [1] = Modulation of sphingomyelin pool in human L3.6p1 cells assessed as N23:0 level per mg protein at 500 nM after 48 hrs (reference value: 0.07 nmol); type: functional
# [2] = Modulation of ceramide pool in human L3.6p1 cells assessed as N24:1 level per mg protein at 500 nM after 48 hrs (reference value: 0.37 +/- 0.06 nmol); type: functional
# [3] = Modulation of ceramide pool in human L3.6p1 cells assessed as N16:0 level per mg protein at 500 nM after 48 hrs (reference value: 0.08 +/- 0.01 nmol); type: functional
# [4] = Selectivity ratio of IC50 for CHO-MG cells to IC50 for PTS in CHO cells; design: species or system Cricetulus griseus
# [5] = Modulation of sphingomyelin pool in human L3.6p1 cells assessed as N22:1 level per mg protein at 500 nM after 48 hrs (reference value: 0.17 +/- 0.01 nmol); type: functional
# [6] = Modulation of sphingomyelin pool in human L3.6p1 cells assessed as N23:1 level per mg protein at 500 nM after 48 hrs (reference value: 0.10 nmol); type: functional
# [7] = Modulation of sphingomyelin pool in human L3.6p1 cells assessed as N21:0 level per mg protein at 500 nM after 48 hrs (reference value: 0.03 nmol); type: functional
# [8] = Modulation of sphingomyelin pool in human L3.6p1 cells assessed as N24:1 level per mg protein at 500 nM after 48 hrs (reference value: 1.07 +/- 0.03 nmol); type: functional
# [9] = Modulation of sphingomyelin pool in human L3.6p1 cells assessed as N16:0 level per mg protein at 500 nM after 48 hrs (reference value: 2.60 +/- 0.06 nmol); type: functional
# [10] = Modulation of sphingomyelin pool in human L3.6p1 cells assessed as N15:0 level per mg protein at 500 nM after 48 hrs (reference value: 0.12 nmol); type: functional
# [11] = Modulation of sphingomyelin pool in human L3.6p1 cells assessed as N25:0 level per mg protein at 500 nM after 48 hrs (reference value: 0.01 nmol); type: functional
# [12] = Antimigratory activity against human L3.6p1 cells at 0.5 uM after 24 hrs in presence of amine oxidase inhibitor aminoguanidine by scratch assay relative to control; type: functional; conditions: L3.6p1, 24 h
# [13] = Modulation of sphingomyelin pool in human L3.6p1 cells assessed as N25:1 level per mg protein at 500 nM after 48 hrs (reference value: 0.02 +/- 0.01 nmol); type: functional
# [14] = Modulation of sphingomyelin pool in human L3.6p1 cells assessed as N17:0 level per mg protein at 500 nM after 48 hrs (reference value: 0.05 +/- 0.01 nmol); type: functional
# [15] = Antiproliferative activity against human L3.6p1 cells after 48 hrs in presence of amine oxidase inhibitor aminoguanidine by MTS assay; type: functional, cell-based; conditions: for pIC50: Homo sapiens, L3.6p1, 48 h
# [16] = Modulation of sphingomyelin pool in human L3.6p1 cells assessed as N22:0 level per mg protein at 500 nM after 48 hrs (reference value: 0.23 +/- 0.01 nmol); type: functional
# [17] = test system: CHO-MG; assay: Cytotoxicity against CHO-MG cells assessed as reduction in cell viability after 48 hrs in presence of aminoguanidine by MTS assay; type: cell-based; conditions: Cricetulus griseus
# [18] = Modulation of sphingomyelin pool in human L3.6p1 cells assessed as N24:2 level per mg protein at 500 nM after 48 hrs (reference value: 0.30 +/- 0.01 nmol); type: functional
# [19] = Modulation of sphingomyelin pool in human L3.6p1 cells assessed as N22:2 level per mg protein at 500 nM after 48 hrs (reference value: 0.01 nmol); type: functional
# [20] = Modulation of sphingomyelin pool in human L3.6p1 cells assessed as N14:0 level per mg protein at 500 nM after 48 hrs (reference value: 0.13 +/- 0.01 nmol); type: functional
# [21] = Modulation of sphingomyelin pool in human L3.6p1 cells assessed as N18:1 level per mg protein at 500 nM after 48 hrs (reference value: 0.07 nmol); type: functional
# [22] = Modulation of sphingomyelin pool in human L3.6p1 cells assessed as N24:0 level per mg protein at 500 nM after 48 hrs (reference value: 0.32 +/- 0.01 nmol); type: functional
# [23] = Modulation of sphingomyelin pool in human L3.6p1 cells assessed as N19:0 level per mg protein at 500 nM after 48 hrs (reference value: 0.01 nmol); type: functional
# [24] = Modulation of sphingomyelin pool in human L3.6p1 cells assessed as N20:0 level per mg protein at 500 nM after 48 hrs (reference value: 0.06 +/- 0.01 nmol); type: functional
# [25] = Modulation of sphingomyelin pool in human L3.6p1 cells assessed as total sphingomyelin level per mg protein at 500 nM after 48 hrs (reference value: 5.91 +/- 0.11 nmol); type: functional
# [26] = Substrate activity at PTS in CHO cells assessed as reduction in cell viability after 48 hrs in presence of aminoguanidine by MTS assay; type: cell-based; conditions: Cricetulus griseus
# [27] = Modulation of sphingomyelin pool in human L3.6p1 cells assessed as N26:1 level per mg protein at 500 nM after 48 hrs (reference value: 0.02 nmol); type: functional
# [28] = Antimigratory activity against human L3.6p1 cells at 1 uM after 24 hrs in presence of amine oxidase inhibitor aminoguanidine by scratch assay relative to control; type: functional; conditions: L3.6p1, 24 h
# [29] = Modulation of sphingomyelin pool in human L3.6p1 cells assessed as N16:1 level per mg protein at 500 nM after 48 hrs (reference value: 0.28 +/- 0.01 nmol); type: functional
# [30] = Modulation of ceramide pool in human L3.6p1 cells assessed as N24:0 level per mg protein at 500 nM after 48 hrs (reference value: 0.16 +/- 0.04 nmol); type: functional
# [31] = Modulation of ceramide pool in human L3.6p1 cells assessed as total ceramide level per mg protein at 500 nM after 48 hrs (reference value: 0.62 +/- 0.10 nmol); type: functional
# [32] = Modulation of sphingomyelin pool in human L3.6p1 cells assessed as N20:1 level per mg protein at 500 nM after 48 hrs (reference value: 0.02 nmol); type: functional
# [33] = Modulation of sphingomyelin pool in human L3.6p1 cells assessed as N23:2 level per mg protein at 500 nM after 48 hrs (reference value: 0.01 nmol); type: functional
# [34] = Modulation of sphingomyelin pool in human L3.6p1 cells assessed as N18:0 level per mg protein at 500 nM after 48 hrs (reference value: 0.19 +/- 0.01 nmol); type: functional
# [35] = species: Mus musculus; assay: Increase in SGMS activity in mouse PancO2 cell lysates assessed as induction of NBD-sphingomyelin production at 1 uM using C12-NBD-ceramide substrate after 72 hrs by TLC relative to control
# [36] = species: Mus musculus; assay: Increase in SGMS activity in mouse PancO2 cell lysates assessed as induction of NBD-sphingomyelin production at 0.5 uM using C12-NBD-ceramide substrate after 72 hrs by TLC relative to control
# [37] = Solubility in water; type: physicochemical; conditions: buffer
structure (smiles),measurement,setting,value
Cl.Cl.Cl.Cl.NCCNCCNCCNCC1CCCCCCCCCCCCCC1,Activity,[1],0.08 nmol
same,Activity,[2],0.28 nmol
same,Activity,[3],0.09 nmol
same,Ratio IC50,[4],1.1
same,Activity,[5],0.19 nmol
same,Activity,[6],0.11 nmol
same,Activity,[7],0.03 nmol
same,Activity,[8],1.15 nmol
same,Activity,[9],2.66 nmol
same,Activity,[10],0.12 nmol
same,Activity,[11],0.02 nmol
same,inhibition at 0.5 µM,[12],6.1%
same,Activity,[13],0.02 nmol
same,Activity,[14],0.05 nmol
same,IC5,[15],0.92 µM
same,pIC50,[15],5.79
same,Activity,[16],0.28 nmol
same,pIC50,[17],5.58
same,Activity,[18],0.31 nmol
same,Activity,[19],0.02 nmol
same,Activity,[20],0.13 nmol
same,Activity,[21],0.09 nmol
same,Activity,[22],0.32 nmol
same,Activity,[23],0.01 nmol
same,Activity,[24],0.08 nmol
same,Activity,[25],6.25 nmol
same,pIC50,[26],5.63
same,Activity,[27],0.03 nmol
same,inhibition at 1 µM,[28],16.8%
same,Activity,[29],0.28 nmol
same,Activity,[30],0.11 nmol
same,Activity,[31],0.49 nmol
same,Activity,[32],0.02 nmol
same,Activity,[33],0.01 nmol
same,Activity,[34],0.24 nmol
Cl.Cl.Cl.NCCCCNCCCCNCc1c2ccccc2cc2ccccc12,Ratio IC50,[4],148
Cl.Cl.NCCNCc1c2ccccc2cc2ccccc12,Ratio IC50,[4],5.8
same,inhibition at 0.5 µM,[12],6.2%
same,IC5,[15],4.15 µM
same,pIC50,[15],4.62
same,pIC50,[17],4.95
same,pIC50,[26],5.71
Cl.Cl.Cl.NCCCNCCCNCC1CCCCCCCCCCCCCC1,Activity,[1],0.09 nmol
same,Activity,[2],0.37 nmol
same,Activity,[3],0.11 nmol
same,Activity,[35],97%
same,Ratio IC50,[4],1
same,Activity,[5],0.22 nmol
same,Activity,[6],0.12 nmol
same,Activity,[7],0.04 nmol
same,Activity,[8],1.22 nmol
same,Activity,[9],2.84 nmol
same,Activity,[10],0.13 nmol
same,Activity,[11],0.02 nmol
same,inhibition at 0.5 µM,[12],20.2%
same,Activity,[13],0.03 nmol
same,Activity,[14],0.06 nmol
same,IC5,[15],80 µM
same,pIC50,[15],4.05
same,Activity,[16],0.31 nmol
same,Activity,[18],0.36 nmol
same,Activity,[19],0.02 nmol
same,Activity,[20],0.13 nmol
same,Activity,[21],0.1 nmol
same,Activity,[22],0.36 nmol
same,Activity,[23],0.01 nmol
same,Activity,[24],0.09 nmol
same,Activity,[25],6.79 nmol
same,Activity,[27],0.03 nmol
same,inhibition at 1 µM,[28],29.9%
same,Activity,[29],0.3 nmol
same,Activity,[30],0.14 nmol
same,Activity,[31],0.63 nmol
same,Activity,[32],0.03 nmol
same,Activity,[33],0.01 nmol
same,Activity,[34],0.27 nmol
same,Activity,[36],88%
Cl.Cl.Cl.NCCCNCCCN1CCCCCCCCCCCCCC1,Activity,[1],0.1 nmol
same,Activity,[2],0.51 nmol
same,Activity,[3],0.17 nmol
same,Activity,[35],75%
same,Ratio IC50,[4],1
same,Activity,[5],0.27 nmol
same,Activity,[6],0.14 nmol
same,Activity,[7],0.05 nmol
same,Activity,[8],1.49 nmol
same,Activity,[9],3.26 nmol
same,Activity,[10],0.14 nmol
same,Activity,[11],0.03 nmol
same,inhibition at 0.5 µM,[12],20.6%
same,Activity,[13],0.03 nmol
same,Activity,[14],0.06 nmol
same,IC5,[15],0.6 µM
same,pIC50,[15],6.00
same,Activity,[16],0.35 nmol
same,Activity,[18],0.41 nmol
same,Activity,[19],0.02 nmol
same,Activity,[20],0.14 nmol
same,Activity,[21],0.11 nmol
same,Activity,[22],0.39 nmol
same,Activity,[23],0.01 nmol
same,Activity,[24],0.1 nmol
same,Activity,[25],7.84 nmol
same,Activity,[27],0.04 nmol
same,inhibition at 1 µM,[28],39.8%
same,Activity,[29],0.33 nmol
same,Activity,[30],0.2 nmol
same,Activity,[31],0.89 nmol
same,Activity,[32],0.03 nmol
same,Activity,[33],0.01 nmol
same,Activity,[34],0.32 nmol
same,Activity,[36],89%
Cl.Cl.Cl.NCCCNCCCNC1CCCCCCCCCCCCCC1,Activity,[35],82%
same,Ratio IC50,[4],2.1
same,Activity,[36],75%
Cl.Cl.Cl.NCCNCCNCC1CCCCCCCCCCCCCC1,Ratio IC50,[4],1
same,inhibition at 0.5 µM,[12],10.2%
same,IC5,[15],0.6 µM
same,pIC50,[15],5.90
same,pIC50,[17],5.59
same,pIC50,[26],5.61
same,inhibition at 1 µM,[28],26.8%
NCCNCCNCCN [TRIENTINE],inhibition at 1 µM,[28],0%
Cl.Cl.NCCNCC1CCCCCCCCCCCCCC1,Ratio IC50,[4],0.9
same,inhibition at 0.5 µM,[12],6.2%
same,IC5,[15],0.6 µM
same,pIC50,[15],5.84
same,pIC50,[17],5.63
same,pIC50,[26],5.58
same,inhibition at 1 µM,[28],26.2%
OCC1CCCCCCCCCCCCCC1,solubility,[37],Insoluble
same,IC5,[15],8.4 µM
same,pIC50,[15],4.38
same,pIC50,[17],< 4.00
same,pIC50,[26],< 4.00
same,inhibition at 1 µM,[28],-37.2%
Cl.Cl.Cl.NCCCNCCCNCCC1CCCCCCCCCCCCCC1,Ratio IC50,[4],1.1
same,inhibition at 0.5 µM,[12],-15.5%
same,IC5,[15],1.64 µM
same,pIC50,[15],5.48
same,pIC50,[17],5.55
same,pIC50,[26],5.60
same,inhibition at 1 µM,[28],1.5%
NCCNCCN,inhibition at 1 µM,[28],0%
